System: SEM cells
Experiment: cell viability relative to DMSO control; higher = less cytotoxic
Conditions: 48 h
How it was run: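 Cells were incubated for 48 h at 37°C before CellTiter-Glo One luminescence was read. The cells were NOMO1 or SEM (500 cells/well) or P12-Ichikawa (1000 cells/well) leukemia cells, adapted for at least four passages in each medium and seeded in 1536-well plates (5 μl). Dosing used library compounds in DMSO applied by pin over 11 threefold points, 47 μM to 0.79 nM. Viability is the per-plate percentage of DMSO wells, with cell-free wells as background.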

[1] = HPLM + 10% dialyzed FBS, 0.000781 µM
[2] = HPLM + 10% dialyzed FBS, 0.00234 µM
[3] = HPLM + 10% dialyzed FBS, 0.00702 µM
[4] = HPLM + 10% dialyzed FBS, 0.0211 µM
[5] = HPLM + 10% dialyzed FBS, 0.0632 µM
[6] = HPLM + 10% dialyzed FBS, 0.19 µM
[7] = HPLM + 10% dialyzed FBS, 0.569 µM
[8] = HPLM + 10% dialyzed FBS, 1.71 µM
[9] = HPLM + 10% dialyzed FBS, 5.12 µM
[10] = HPLM + 10% dialyzed FBS, 15.4 µM
[11] = HPLM + 10% dialyzed FBS, 46.1 µM
[12] = RPMI 5 mM glucose + 10% FBS, 0.000781 µM
[13] = RPMI 5 mM glucose + 10% FBS, 0.00234 µM
[14] = RPMI 5 mM glucose + 10% FBS, 0.00702 µM
[15] = RPMI 5 mM glucose + 10% FBS, 0.0211 µM
[16] = RPMI 5 mM glucose + 10% FBS, 0.0632 µM
[17] = RPMI 5 mM glucose + 10% FBS, 0.19 µM
[18] = RPMI 5 mM glucose + 10% FBS, 0.569 µM
[19] = RPMI 5 mM glucose + 10% FBS, 1.71 µM
[20] = RPMI 5 mM glucose + 10% FBS, 5.12 µM
[21] = RPMI 5 mM glucose + 10% FBS, 15.4 µM
[22] = RPMI 5 mM glucose + 10% FBS, 46.1 µM
[23] = RPMI 5 mM glucose + 10% dialyzed FBS, 0.000781 µM
[24] = RPMI 5 mM glucose + 10% dialyzed FBS, 0.00234 µM
[25] = RPMI 5 mM glucose + 10% dialyzed FBS, 0.00702 µM
[26] = RPMI 5 mM glucose + 10% dialyzed FBS, 0.0211 µM
[27] = RPMI 5 mM glucose + 10% dialyzed FBS, 0.0632 µM
[28] = RPMI 5 mM glucose + 10% dialyzed FBS, 0.19 µM
[29] = RPMI 5 mM glucose + 10% dialyzed FBS, 0.569 µM
[30] = RPMI 5 mM glucose + 10% dialyzed FBS, 1.71 µM
[31] = RPMI 5 mM glucose + 10% dialyzed FBS, 5.12 µM
[32] = RPMI 5 mM glucose + 10% dialyzed FBS, 15.4 µM
[33] = RPMI 5 mM glucose + 10% dialyzed FBS, 46.1 µM

SMILES | cell viability [1] | cell viability [2] | cell viability [3] | cell viability [4] | cell viability [5] | cell viability [6] | cell viability [7] | cell viability [8] | cell viability [9] | cell viability [10] | cell viability [11] | cell viability [12] | cell viability [13] | cell viability [14] | cell viability [15] | cell viability [16] | cell viability [17] | cell viability [18] | cell viability [19] | cell viability [20] | cell viability [21] | cell viability [22] | cell viability [23] | cell viability [24] | cell viability [25] | cell viability [26] | cell viability [27] | cell viability [28] | cell viability [29] | cell viability [30] | cell viability [31] | cell viability [32] | cell viability [33]
CNC(=O)c1cccc(-c2ccc3c(N4CCOC[C@@H]4C)nc(N4CCOC[C@@H]4C)nc3n2)c1 | 97.5% | 102% | 85.8% | 77.2% | 73.2% | 63.7% | 62.6% | 47.8% | 37.6% | 38.6% | 23.1% | 110% | 98.1% | 97% | 93.3% | 84.4% | 77.6% | 78.7% | 56.1% | 47.3% | 32.9% | 17.9% | 97.7% | 95.9% | 85.3% | 76% | 69.6% | 64.1% | 58.6% | 55.3% | 43% | 35% | 20.7%
OC[C@H]1O[C@@H](Oc2ccc(O)cc2)[C@H](O)[C@@H](O)[C@@H]1O | 68.3% | 82.3% | 75.3% | 93% | 90.1% | 95.1% | 95.7% | 19.1% | 93.1% | 77.7% | 76.3% | 71.7% | 90.8% | 73.7% | 96.3% | 90.3% | 95.4% | 102% | 17% | 82.3% | 103% | 77.2% | 86.2% | 81.8% | 92.2% | 87.8% | 72% | 101% | 105% | 22.1% | 97.9% | 88% | 81.2%
O=[N+]([O-])c1cn2c(n1)OC[C@@H](OCc1ccc(OC(F)(F)F)cc1)C2 | 105% | 97.3% | 108% | 115% | 109% | 101% | 96.3% | 89% | 86.7% | 92.4% | 90.5% | 120% | 112% | 118% | 144% | 117% | 129% | 137% | 125% | 114% | 122% | 132% | – | – | – | – | – | – | – | – | – | – | –
C#Cc1cccc(Nc2ncnc3cc(OCCOC)c(OCCO)cc23)c1 | 104% | 113% | 98.3% | 117% | 116% | 123% | 110% | 105% | 96.8% | 69.1% | 20% | – | – | – | – | – | – | – | – | – | – | – | 114% | 107% | 118% | 114% | 116% | 103% | 105% | 88.4% | 94.9% | 62.5% | 14.5%
CC(C)OC(=O)CCC/C=C\C[C@@H]1[C@@H](/C=C/[C@@H](O)COc2cccc(C(F)(F)F)c2)[C@H](O)C[C@@H]1O | 65.4% | 124% | 115% | 118% | 118% | 118% | 121% | 122% | 106% | 102% | 31.7% | – | – | – | – | – | – | – | – | – | – | – | – | – | – | – | – | – | – | – | – | – | –
CN[C@H](CC(C)C)C(=O)N[C@H]1C(=O)N[C@@H](CC(N)=O)C(=O)N[C@H]2C(=O)N[C@H]3C(=O)N[C@H](C(=O)N[C@H](C(=O)O)c4cc(O)cc(O)c4-c4cc3ccc4O)[C@H](O)c3ccc(c(Cl)c3)Oc3cc2cc(c3O[C@@H]2O[C@H](CO)[C@@H](O)[C@H](O)[C@H]2O[C@H]2C[C@](C)(N)[C@H](O)[C@H](C)O2)Oc2ccc(cc2Cl)[C@H]1O | 94.2% | 94.3% | 124% | 112% | 125% | 111% | 128% | 89% | 126% | 129% | 122% | 127% | 114% | 120% | 130% | 144% | 143% | 148% | 126% | 138% | 131% | 142% | 112% | 126% | 125% | 138% | 126% | 114% | 131% | 95.9% | 138% | 118% | 110%
Cc1ccc(C(C)(O)c2nc3ccccc3s2)c(C)c1 (stereo unspecified) | 75.7% | 95.1% | 106% | 82.9% | 108% | 114% | 6.4% | 76.6% | 94.2% | 62.4% | 63.5% | 91.7% | 110% | 94.2% | 102% | 107% | 123% | 7.03% | 70.7% | 102% | 61.2% | 63.2% | 77.1% | 112% | 93.7% | 114% | 91.1% | 115% | 8% | 69.7% | 97.4% | 56.5% | 56.6%
COCCOC(=O)C/1=C(C)/NC/2=C(C1C3=CC=CC(=C3)O)/C(=O)CC(C2)C4=C(OC)C=CC=C4 (stereo unspecified) | 90.2% | 80.6% | 106% | 108% | 98.2% | 87.7% | 100% | 101% | 94.3% | 57% | 30.1% | 98.9% | 96.8% | 97.8% | 126% | 103% | 90.6% | 115% | 90.8% | 78.5% | 45.6% | 24.4% | 80.8% | 79.2% | 122% | 104% | 105% | 82.4% | 102% | 101% | 74.1% | 50.9% | 21.7%
CC1(C)[C@@H](O[C@H]2O[C@H](C(=O)O)[C@@H](O)[C@H](O)[C@H]2O[C@@H]2O[C@H](C(=O)O)[C@@H](O)[C@H](O)[C@H]2O)CC[C@]2(C)[C@H]3C(=O)C=C4[C@@H]5C[C@@](C)(C(=O)O)CC[C@]5(C)CC[C@@]4(C)[C@]3(C)CC[C@@H]12 | 116% | 113% | 117% | 104% | 145% | 114% | 143% | 128% | 150% | 165% | 163% | – | – | – | – | – | – | – | – | – | – | – | – | – | – | – | – | – | – | – | – | – | –

Source: the supplement of paper PMC11451515
